Patent publication US11466007B2, “Substituted lactams showing serotonin 5-HT receptor activity” (Sumitomo Pharma Co., Ltd., priority 2018, dated 2022)

Assays:
human 5-HT2A receptor [1] = target: T1, human 5-HT2A receptor (Homo sapiens (Human), UniProt P28223); assay: Test 3: antagonist activity for human 5-HT2A receptor (aequorin luminescence, CHO-K1 cells); assay type: cell-based
Protocol: Test 3: Evaluation of Antagonist Activity for Human 5-HT2A Receptor
Aequorin, Gα16 protein, and each receptor were transiently expressed in CHO-K1 cells (Chinese hamster ovary). […] Each compound dissolved in DMSO was added thereto, and changes in luminescence were measured by FDSS/μCELL functional drug screening system (Hamamatsu Photonics K.K.). Antagonist activity was calculated from the following formula.
Antagonist activity (%)=100×{(Luminescence of well in the presence of 1 nmol/L 5-HT−Luminescence of well containing solvent)−(Luminescence of well in the presence of test compound and 1 nmol/L 5-HT−Luminescence of well containing solvent)}/(Luminescence of well in the presence of 1 nmol/L 5-HT−Luminescence of well containing solvent)

[2] = Test 4: metabolic stability test in human hepatic microsome; assay type: in vitro ADME; conditions: 0.1 mg/mL microsome, 0.1 μmol/L compound, NADPH, 37° C., 30 minutes
How it was run: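 Test compound at 0.1 μmol/L incubated 30 min at 37° C with human liver microsomes (0.1 mg/mL) and NADPH (3.2 mmol/L) in 25 mmol/L phosphate buffer, pH 7.4. Residual compound quantified by LC-MS; clearance (mL/min/mg protein) = −LN(residual ratio)/30/0.1.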

[3] = Test 10: intracerebral transferability of rats (Kp,uu,brain); assay type: in vivo, SD or WKY rats; conditions: rat, brain and plasma, unbound drug concentration ratio brain/plasma, s.c. or oral, 0.5, 1 or 2 hours
Protocol: Test 10: Evaluation of Intracerebral Transferability (Test for Intracerebral Transferability of Rats)
In this test, intracerebral transferability of the present compounds was evaluated by the following method. The present compounds were subcutaneously administered as a solution in saline, or orally administered as a suspension in methyl cellulose to 7-week-old SD or WKY rats. Plasma and brain were collected on 0.5 hours, 1 hour, or 2 hours after the administration to measure the drug concentrations in plasma and brain by LC-MS.
Binding rates of the present compound to plasma and brain protein were measured by equilibrium dialysis method.
Kp,uu,brain (unbound drug concentration ratio between brain/plasma) can be calculated by applying the compound concentrations in plasma and brain and the binding rates to plasma and brain protein obtained from the above test into the following formula. Kp,uu,brain=(Compound concentration in brain×(100−Binding rate to brain protein (%))/100)/(Compound concentration in plasma×(100−Binding rate to plasma protein (%))/100)

P-gp (MDR1) = P-gp (MDR1) (Homo sapiens (Human), UniProt P08183); assay: Test 9: P-gp substrate property (NFR, MDCKII and MDR1-MDCKII cells); assay type: in vitro ADME; conditions: ratio of Papp B-A/Papp A-B in MDR1-MDCKII cells to that in MDCKII cells
Protocol: Evaluation test for binding was carried out as follows with the CHO cell membrane fraction in which human target receptor was expressed. […] Each mixture was incubated at room temperature, added quickly on a glassfiber filter plate (Multiscreen FB, Millipore, Inc.), and vacuum-filtered. Radioactivity remaining on the filter was measured with a liquid scintillation counter (PerkinElmer, Inc.). Binding inhibition rate was calculated from the following formula.
NFR (Net Flux Ratio), which is an index of P-gp substrate property, can be calculated as follows. MDCKII (Madin-Darby canine kidney strain II) cells and MDR1-MDCKII cells in which MDR1 (multidrug resistance protein 1) was overexpressed were used to measure an apparent permeability coefficient (Papp A-B) from lumen (A) to basement membrane (B) and an apparent permeability coefficient (Papp B-A) from basement membrane (B) to lumen (A) of both MDCKII cells and MDR1-MDCKII cells. NFR (Net Flux Ratio) was calculated from the ratio between Ratio (Papp B-A/Papp A-B) of an apparent permeability coefficient of MDR1-MDCKII cells and Ratio of an apparent permeability coefficient of MDCKII cells.

human 5-HT1A receptor [4] = target: T2, human 5-HT1A receptor (Homo sapiens (Human), UniProt P08908); assay: Test 2: agonist activity for human 5-HT1A receptor ([35S]GTPγS binding); assay type: biochemical
Protocol: Test 2: Evaluation of Agonist Activity for Human 5-HT1A Receptor
CHO cell membrane fraction in which human 5-HT1A receptor was expressed as used in Test 1 was purchased. To a buffer containing guanosine diphosphate were added a test compound dissolved in DMSO, each receptor membrane sample diluted with buffer, and [^35S] Guanosine 5′-O-[gamma-thio]triphosphate (GTPγS). The mixture was incubated at room temperature for 60 minutes. Then, the mixture was added quickly on a glassfiber filter plate (Multiscreen FB, Millipore, Inc.), and vacuum-filtered. Radioactivity remaining on the […] was measured with a liquid scintillation counter. Agonist activity was calculated from the following formula.

human 5-HT1A receptor [5] = target: T2, human 5-HT1A receptor; assay: Test 1: binding activity for human 5-HT1A receptor ([3H]8-OH-DPAT); conditions: CHO cell membrane fraction
Protocol: (§1) Test 1: Evaluation of Binding Activity for Human 5-HT1A Receptor, Human 5-HT2A Receptor, and Human D2 Receptor
(§2) Binding affinity of the present compound for human 5-HT1A receptor, human 5-HT2A receptor, and human D2 receptor was measured by the following procedures.
(§3) Each mixture was incubated at room temperature for 60 minutes. Then, the mixture was added quickly on a glassfiber filter plate (Multiscreen FB, Millipore, Inc.) coated with 0.3% aqueous polyethylenimine, and vacuum-filtered. Radioactivity remaining on the filter was measured with a liquid scintillation counter (PerkinElmer, Inc.). Binding inhibition rate was calculated from the following formula.
(§4) IC50 value was calculated by Hill analysis (Physiology, 1910, 40, 190-200). Ki of each compound was calculated from the following formula. Binding inhibition constant (Ki)=IC50/(1+S/Kd) wherein S is concentration of ligand; Kd is a binding dissociation constant of ligand to membrane, which is calculated from a saturated binding experiment conducted with the same cell membrane. A small Ki value means strong binding ability to a receptor.

human 5-HT2A receptor [6] = target: T1, human 5-HT2A receptor; assay: Test 1: binding activity for human 5-HT2A receptor ([3H]Ketanserin); conditions: CHO cell membrane fraction
Protocol: as §1, §2, §3
as §4, with “Ki” for “IC50 value was calculated by Hill analysis (Physiology, 1910, 40, 190-200). Ki”

[7] = Test 11: hepatotoxic risk (dansyl glutathione (dGSH) trapping assay); assay type: in vitro ADME; conditions: human hepatic microsome, 37° C. for 60 minutes, N.D. means below detection limit
Protocol: Test 11: Evaluation of Hepatotoxic Risk (Dansyl Glutathione (dGSH) Trapping Assay)
The present compound was metabolized in hepatic microsome, and reactive metabolite which reacts with dansyl glutathione (dGSH) was detected and quantified from the resulting metabolite. Measurement was carried out with a screening robot (Tecan) for metabolic reaction, and with a fluorescence detection UPLC system (Waters) for metabolite-dGSH binding concentration.
The present compound was dissolved in DMSO to prepare 10 mmol/L test compound solution. 7.6 mL of potassium phosphate buffer (500 mmol/L, pH 7.4), 1.9 mL of human hepatic microsome (Xenotech, 20 mg protein/mL), and 1.27 mL of pure water were mixed to prepare a microsome solution. To 3.78 mL of the microsome solution was added 0.67 mL of pure water to prepare a microsome (dGSH(−)) solution. To 6.48 mL of the microsome solution was added 1.14 mL of the dGSH solution (20 mmol/L) to prepare a microsome (dGSH(+)) solution. […]
Metabolite-dGSH binding concentration was measured by the following method, using a fluorescence detection UPLC system (Waters). […]
Fluorescence intensity was corrected with the composition of organic solvent at the time of elution because fluorescence intensity changes depending on the composition of organic solvent.

T2 sequence (P08908 whole entry): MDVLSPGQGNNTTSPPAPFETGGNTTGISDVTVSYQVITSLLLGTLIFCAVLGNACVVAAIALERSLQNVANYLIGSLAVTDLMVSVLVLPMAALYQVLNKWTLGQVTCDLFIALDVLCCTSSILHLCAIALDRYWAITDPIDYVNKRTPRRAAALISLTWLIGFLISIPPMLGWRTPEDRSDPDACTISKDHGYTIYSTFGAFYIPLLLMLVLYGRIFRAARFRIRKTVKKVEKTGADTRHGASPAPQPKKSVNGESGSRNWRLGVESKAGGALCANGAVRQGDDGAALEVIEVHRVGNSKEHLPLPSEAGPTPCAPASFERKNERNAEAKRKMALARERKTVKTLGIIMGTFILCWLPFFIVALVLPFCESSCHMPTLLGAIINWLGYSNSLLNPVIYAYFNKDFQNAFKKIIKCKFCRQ
T1 sequence (P28223 whole entry): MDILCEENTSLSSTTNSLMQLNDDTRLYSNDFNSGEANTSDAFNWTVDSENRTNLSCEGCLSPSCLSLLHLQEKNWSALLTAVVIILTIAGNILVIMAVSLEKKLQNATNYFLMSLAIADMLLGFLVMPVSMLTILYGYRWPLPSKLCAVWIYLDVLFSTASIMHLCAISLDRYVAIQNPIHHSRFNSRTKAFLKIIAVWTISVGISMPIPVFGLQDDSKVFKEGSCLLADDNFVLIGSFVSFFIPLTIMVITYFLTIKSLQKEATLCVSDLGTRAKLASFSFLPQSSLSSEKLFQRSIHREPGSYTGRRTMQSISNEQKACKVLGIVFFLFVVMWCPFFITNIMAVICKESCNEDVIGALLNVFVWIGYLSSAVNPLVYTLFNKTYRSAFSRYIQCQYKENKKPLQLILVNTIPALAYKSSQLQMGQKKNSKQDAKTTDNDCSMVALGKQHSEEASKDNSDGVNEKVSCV
Chain of P-gp (MDR1) (P08183 whole entry, species assumed): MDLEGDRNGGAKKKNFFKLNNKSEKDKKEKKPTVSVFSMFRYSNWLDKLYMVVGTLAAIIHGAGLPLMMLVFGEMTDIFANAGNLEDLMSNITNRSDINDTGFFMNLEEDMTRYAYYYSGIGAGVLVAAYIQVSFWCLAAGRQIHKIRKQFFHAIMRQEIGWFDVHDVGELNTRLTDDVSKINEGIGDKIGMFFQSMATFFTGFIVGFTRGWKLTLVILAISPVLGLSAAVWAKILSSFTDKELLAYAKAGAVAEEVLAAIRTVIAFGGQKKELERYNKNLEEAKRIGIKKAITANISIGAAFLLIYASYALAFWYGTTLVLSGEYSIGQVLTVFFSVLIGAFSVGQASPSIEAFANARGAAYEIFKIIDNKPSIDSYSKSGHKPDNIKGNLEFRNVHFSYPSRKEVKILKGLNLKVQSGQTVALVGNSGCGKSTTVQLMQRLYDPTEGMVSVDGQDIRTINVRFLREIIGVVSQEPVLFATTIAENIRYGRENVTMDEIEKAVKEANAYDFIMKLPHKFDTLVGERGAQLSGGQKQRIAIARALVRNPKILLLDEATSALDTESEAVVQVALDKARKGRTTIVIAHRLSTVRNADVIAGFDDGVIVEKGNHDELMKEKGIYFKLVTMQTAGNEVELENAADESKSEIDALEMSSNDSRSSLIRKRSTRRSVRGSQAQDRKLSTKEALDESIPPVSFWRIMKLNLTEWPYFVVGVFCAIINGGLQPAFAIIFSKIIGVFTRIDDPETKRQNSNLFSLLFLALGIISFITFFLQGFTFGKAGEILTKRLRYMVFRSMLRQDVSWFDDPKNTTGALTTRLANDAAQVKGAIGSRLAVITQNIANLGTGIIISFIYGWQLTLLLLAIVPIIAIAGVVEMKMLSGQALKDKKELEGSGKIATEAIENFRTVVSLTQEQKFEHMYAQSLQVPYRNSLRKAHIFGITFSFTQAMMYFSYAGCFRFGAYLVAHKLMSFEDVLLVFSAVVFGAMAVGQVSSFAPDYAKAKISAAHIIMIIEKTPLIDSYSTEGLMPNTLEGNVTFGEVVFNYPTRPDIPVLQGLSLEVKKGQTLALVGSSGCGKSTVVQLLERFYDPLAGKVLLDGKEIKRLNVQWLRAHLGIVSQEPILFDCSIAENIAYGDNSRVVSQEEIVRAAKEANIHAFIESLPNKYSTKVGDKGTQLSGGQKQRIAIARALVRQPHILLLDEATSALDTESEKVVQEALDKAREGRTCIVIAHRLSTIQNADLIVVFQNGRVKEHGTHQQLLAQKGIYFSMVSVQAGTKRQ

O=C1c2ncccc2CCN1CCN1CCC(c2noc3cc(F)c(F)cc23)CC1 [Example 148]
5-HT2A antagonist activity (human 5-HT2A receptor [1]; at 10 μM): 45% at 10 μM

Cn1cc2c(n1)CCN(CCN1CCN(c3nsc4ccccc34)CC1)C2=O [Example 36, 5-{2-[4-(1,2-Benzoisothiazol-3-yl)piperazin-1-yl]ethyl}-2-methyl-2,5,6,7-tetrahydro-4H-pyrazolo[4,3-c]pyridin-4-one]
Metabolic stability in human hepatic microsome [2]: 0.085 mL/min/mg protein | Kp uu at 2 h [3]: 0.08 | NFR (Net Flux Ratio) (P-gp (MDR1)): 1.8

Cn1ncc2c1CCCN(CCN1CCC(c3noc4ccccc34)CC1)C2=O [Example 43]
Metabolic stability in human hepatic microsome [2]: <0.01 mL/min/mg protein | Kp uu at 2 h [3]: 0.18 | NFR (Net Flux Ratio) (P-gp (MDR1)): 2.2

COc1ccc2c(n1)C(=O)N(CCN1CCC(c3noc4ccccc34)CC1)CC2 [Example 187]
IC50 (human 5-HT2A receptor [1]; CHO-K1 cells, aequorin/Gα16, 1 nmol/L 5-HT): 89.7 nM | EC50 (human 5-HT1A receptor [4]; [35S]GTPγS binding, CHO cell membrane fraction expressing human 5-HT1A receptor): 38.2 nM | Emax at 10 µM (human 5-HT1A receptor [4]; agonist activity in the presence of 10 μM compound, relative to 100 μmol/L 5-HT): 55% | Ki (human 5-HT1A receptor [5]): 1.59 nM | Metabolic stability in human hepatic microsome [2]: <0.05 mL/min/mg protein | Ki (human 5-HT2A receptor [6]): 14.5 nM

O=C1c2ncccc2CCN1CCN1CCC(c2noc3ccccc23)CC1 [Example 22, 7-{2-[4-(1,2-Benzoisoxazol-3-yl)piperidin-1-yl]ethyl}-6,7-dihydro-1,7-naphthyridin-8(5H)-one]
Metabolite-dGSH binding concentration [7]: 0.089 µM | Metabolic stability in human hepatic microsome [2]: 0.039 mL/min/mg protein
